One data set has as its system misfolded Aβ dimers. As to the kind of experiment: Single-molecule AFM force spectroscopy: rupture force of Aβ dimers. Type of data set: binding, human. The method, then: The cysteinyl−peptides were covalently immobilized on the tip and the surface via flexible tethers terminated with maleimide groups. […] Peptide aggregation was minimized by using a very low peptide concentration (20 nM) during the coupling reaction with the functionalized mica surface and the tips. Probing was performed by multiple approach−retraction cycles over various spots of the mica surface.
Figures 1−b1 and 1−b2 show typical force curves for non−specific and specific interactions, respectively. Specific rupture events were characterized by the appearance of the event indicated with an arrow in Fig. 1−b2. The rupture peak appears at the distance defined by the extension of the flexible linkers (polyethylene glycol, PEG and maleimide silatrane, MAS) and the segments of the peptides not involved in dimer formation (see Supplementary Methods for specifics). The force−distance curves, as shown in Fig. 1−b2, were analyzed with worm−like chain (WLC) fitting to extract parameters including the rupture force and the contour length. […] The measurements for the [VPV]Aβ40 mutant performed at similar conditions (ionic strength, loading rate, etc.) are shown in Fig. 1d. […] The rupture forces increase with increasing apparent loading rates (Supplementary Fig. S1).
All cysteinyl−Aβ peptides were synthesized using 9−fluorenylmethoxycarbonyl (FMOC) chemistry and purified by reverse phase high performance liquid chromatography (RP−HPLC). The identity and purity (usually > 97%) of the peptides were confirmed by amino acid analysis followed by mass spectrometry and RP−HPLC. Functionalization of AFM tips and mica substrates were prepared according to previously published procedures. Briefly, 20 nM Aβ monomers were immobilized on mica functionalized with aminopropyl silatrane (APS) via PEG 3400 tethers and on AFM tips through maleimide silatrane (MAS). For DFS study, the tip retraction speeds ranged from 100 nm/s to 4000 nm/s. The dwell time was set at 0.3 s when retraction speed reached 1000 nm/s and above. Force curves with rupture event were subject to WLC analysis, as shown below. [drawing 1] Rupture force distributions were fitted with a probability density function: [drawing 2] Dynamic force spectra were fitted with Bell−Evans model[21]: [drawing 3] The energy profiles were reconstructed according to previous papers, using the equation below. [drawing 4] Positions of interacting segments of Aβ monomers within dimers were estimated by subtracting from the measured contour lengths the lengths of all linkers and the distance between N−termini of monomers (see Fig. 1a). The contour length of PEG was estimated with the following equation[28]: [drawing 5] Where Lc(F) is the contour length, Ns is the average number of monomers, Lplanar is the length of monomers with planar conformation, Lhelical is the length of monomers with helical conformation, ΔG(F) is the free energy difference at zero appling force. The Ns is 77 ± 10 for 3400 Da PEG. The Lplanar and Lhelical are 3.58 Å and 2.8 Å, respectively. The ΔG(F) is fixed at 3 kBT. The contour length of PEG was thus estimated to be 22.0 ± 0.9 nm. All error bars represent SEM. Detailed methods can be found in Supplementary Information.
A 50 mM 1−(3−aminopropyl) silatrane (APS) stock solution was prepared by dissolving the APS powder in deionized (DI) water. The 1.67 mM stock solution of maleimide−polyethylene glycol−succinimidyl valerate (MAL−PEG−SVA; 3.4 kDa Laysan Bio Inc, Arab, AL) was prepared in DMSO (Sigma−Aldrich Inc.) and stored at −20°C. The 10 mM Tris (2−carboxyethyl) phosphine (TCEP) hydrochloride (Hampton Research Inc.) and the 2.94 mM solution of maleimide silatrane (MAS) were prepared in DI water and stored at −20°C. A 10 mM stock solution of β−mercaptoethanol was prepared in 10 mM sodium phosphate, pH 7.4 (“phosphate buffer”) and kept at 4°C. Unless otherwise specified, other reagents used in the experiments were of analytical grade from Sigma−Aldrich. […]

For the next data set, the system named is Aβ peptides. Conditions: cited from earlier work. From the text:
Aberrant folding (misfolding) and aggregation of amyloid proteins are pathological hallmarks of a large class of neurodegenerative diseases, including Alzheimer's disease (AD) (reviewed in[1][2]). In AD, amyloid precursor proteins are sequentially cleaved by β−secretase and γ−secretase, producing the amyloid β−protein (Aβ)[3]. Aβ peptides contain several alloforms with varying sequences of amino acids, dependent on the cleavage sites of γ−secretase. […] Additional C−terminal modi ... || It is important to compare our data with the aggregation studies of similar Aβ peptide samples.

For data set [1] the following is noted: cited from earlier work. From the text:
Aberrant folding (misfolding) and aggregation of amyloid proteins are pathological hallmarks of a large class of neurodegenerative diseases, including Alzheimer's disease (AD) (reviewed in[1][2]). In AD, amyloid precursor proteins are sequentially cleaved by β−secretase and γ−secretase, producing the amyloid β−protein (Aβ)[3]. Aβ peptides contain several alloforms with varying sequences of amino acids, dependent on the cleavage sites of γ−secretase.

A further data set deals with Aβ42 dimers. Conditions: cited from earlier work. From the text:
We have developed a single−molecule atomic force microscopy (SMFS) approach enabling us to probe and characterize the interactions of the peptides and proteins in transient misfolded conformations. In this approach, the protein is end−immobilized on the AFM tip and substrate, allowing us to measure the interprotein interactions at the single−molecule level. The dynamics force spectroscopy (DFS) approach has been quite informative with respect to the lifetimes of transiently formed misfolded dimers (reviewed in[16]).

[2] abbreviates: loading rates of 5000−7000 pN/s, ± SEM, total data 170 (Aβ40), 280 ([VPV]Aβ40).
The mark [3] stands for this setting: Supplementary Figs. S3b-S5b, similar analysis, loading rate not given.

Where two headings read alike, the source gives them in different places.

In the case of “Aβ40: alloform of human amyloid β−protein; cysteinyl−Aβ peptide, Cys residue placed at the N−terminus”, the “most probable rupture force” value in the data set on misfolded Aβ dimers (loading rate 6215 pN/s, probability density function fit) is reported as 57.0 pN; in the data set on misfolded Aβ dimers (setting [2]), 63.4 ± 3.2 pN; with misfolded Aβ dimers (loading rates of 5000−7000 pN/s, ± SEM, total data 170 (Aβ40), 280 ([VPV]Aβ40), listed as Αβ40) it was 63.4 pN. Further, the “rupture force alignment in the force versus contour length plot” value with misfolded Aβ dimers (scatter plot Fig. 3c, horizontal line, loading rates of 5000−7000 pN/s) is given as ~ 60 pN. In addition, the aggregation properties entry in the data set with Aβ peptides is “similar”. The oligomerization pattern result in the data set with Aβ peptides was “rapid equilibrium with coexisting monomers, dimers, trimers, and tetramers”.
With “Aβ42: alloform of human amyloid β−protein with two additional C−terminal residues; cysteinyl−peptide”, in the data set on misfolded Aβ dimers (setting [3]), the “most probable rupture force” value is listed as 66.2 ± 0.8 pN. For the same substance, in the data set with Aβ peptides, the oligomerization pattern result was “prefers to form a pentamer/hexamer structure (paranucleus)”. Moreover, the “toxicity compared with other alloforms” value in data set [1] was “appears to be the most toxic”. Besides, the “segments involved in dimer formation” value with Aβ42 dimers (in the absence of Cu^2+ cations) was “formed dimers via the C−terminal segments”; with Aβ42 dimers (with Cu^2+ cations), “dimer formation involves the N−terminal segments”.
As for “[VPV]Aβ40: Aβ40 mutant with VPV substitutions (Gly33Val−Val36Pro−Gly38Val); cysteinyl−peptide”, the “most probable rupture force, increase vs Αβ40 dimers” value in the data set on misfolded Aβ dimers ([VPV]Αβ40 vs Αβ40 (79.3 vs 63.4 pN), loading rates of 5000−7000 pN/s) is listed as 25%. The “most probable rupture force” value came to 83.6 pN in the data set on misfolded Aβ dimers (loading rate 6068 pN/s, probability density function fit); 79.3 ± 1.5 pN in the data set with misfolded Aβ dimers (setting [2]); 79.3 pN with misfolded Aβ dimers (loading rates of 5000−7000 pN/s, ± SEM, total data 170 (Aβ40), 280 ([VPV]Aβ40), listed as [VPV]Αβ40). Also, the “toxicity of oligomers / aggregates” value in data set [1] is listed as “elevated neurotoxicity”.
In the case of “[VPV]Aβ42: Aβ42 with VPV substitutions (Gly33Val−Val36Pro−Gly38Val); cysteinyl−peptide”, the “most probable rupture force” value with misfolded Aβ dimers (setting [3]) was determined as 67.9 ± 1.0 pN.

Source of the values: PMC3791449, “Mechanism of amyloid β−protein dimerization determined using single−molecule AFM force spectroscopy” (Scientific Reports, 2013).
